# Values quoted from earlier work, collected in patent publication US10487297B2, “Environmentally preferred antimicrobial compositions” (CHEMLINK LABORATORIES, LLC, priority 2013, dated 2019).
compound,measurement,value
"CC(=O)N(CCN(C(C)=O)C(C)=O)C(C)=O [TAED, N,N,N′N′-tetraacetylethylenediamine]",pKa,8
